According to patent publication US20250074911A1, “MACROCYCLIC BTK INHIBITORS” (Crossfire Oncology Holding B.V., priority 2021, published 2025):
pIC50, pKd: −log10 of the molar value. Where “and” joins values, the source holds several entries; their conditions need not be identical. Equal values may be shown once.

Columns and labels:
[1] = biological target: full-length BTK C481S enzyme (Homo sapiens (Human), UniProt Q06187, C481S); assay: Biochemical kinase assay BTK C481S (IMAP)
In short: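 IC50 values come from IMAP fluorescence polarization after quenching with progressive binding solution. The reaction ran 2 h at room temperature in the dark with 1.2 nM full-length C481S enzyme, 7 μM ATP and 50 nM fluorescein-labelled MBP-derived peptide, following a 1 h dark pre-incubation of compound with enzyme.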

BTK T474S = BTK T474S (Homo sapiens (Human), UniProt Q06187, T474S); assay: Binding kinetics measurements (Surface Plasmon Resonance) on BTK T474S; details: for pKd: binding affinity by Surface Plasmon Resonance (SPR); for residence time: SPR binding kinetics, BTK T474S, read-out: Tau (h) BTK T474S (Act), target residence time (converted)
Chain of BTK T474S (Q06187 whole entry T474S): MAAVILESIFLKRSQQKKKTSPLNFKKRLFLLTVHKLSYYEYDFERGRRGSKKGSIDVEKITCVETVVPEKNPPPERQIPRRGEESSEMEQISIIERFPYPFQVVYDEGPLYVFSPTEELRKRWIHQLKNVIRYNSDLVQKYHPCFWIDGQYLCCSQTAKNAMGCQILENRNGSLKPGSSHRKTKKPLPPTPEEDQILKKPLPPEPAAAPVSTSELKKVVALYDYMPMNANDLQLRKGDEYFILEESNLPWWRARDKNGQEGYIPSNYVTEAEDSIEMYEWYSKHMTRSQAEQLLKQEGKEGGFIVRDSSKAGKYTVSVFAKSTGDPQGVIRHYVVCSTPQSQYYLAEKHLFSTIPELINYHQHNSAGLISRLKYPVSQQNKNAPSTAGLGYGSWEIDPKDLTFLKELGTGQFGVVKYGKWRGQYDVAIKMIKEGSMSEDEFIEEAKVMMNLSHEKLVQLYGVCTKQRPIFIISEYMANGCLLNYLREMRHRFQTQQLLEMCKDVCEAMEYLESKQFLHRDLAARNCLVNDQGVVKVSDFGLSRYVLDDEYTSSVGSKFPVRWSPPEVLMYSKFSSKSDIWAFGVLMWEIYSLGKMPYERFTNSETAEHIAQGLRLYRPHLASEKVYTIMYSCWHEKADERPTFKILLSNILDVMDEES
In short: (§1)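 Constants come from single-cycle kinetics: five rising compound injections (3.16-316 nM) at 30 μl/min and 22° C over streptavidin-captured BTK (wild type or mutant), running buffer containing 1% DMSO. Double referencing applied; induced-fit binders fitted to a two-state model; duplicates geometrically averaged; residence time derived.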

REC-1 T474I cell lines = assay: Cell proliferation assay REC-1 BTK T474I knock-in cells (ATPlite, 72 hours); type: cell-based; details: Homo sapiens, Rec1; 72 hours; read-out: IC50 REC-1 T474I
In short: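 REC-1 cells carrying CRISPR knock-in mutant BTK, single-cell cloned and sequence-confirmed, were exposed to compound for 72 h and read by ATPlite luminescence. Percentage growth was calculated against the signal at the start of incubation and against untreated 0.3% DMSO wells as maximum growth.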

BTK T316A = BTK T316A (Homo sapiens (Human), UniProt Q06187, T316A); assay: Binding kinetics measurements (Surface Plasmon Resonance) on BTK T316A; details: for pKd: binding affinity by Surface Plasmon Resonance (SPR); for Tau (h) BTK T316A (Act): target residence time, SPR
Chain of BTK T316A (Q06187 whole entry T316A): as the sequence (Q06187 whole entry T474S) above, with T316A, S474T counted along it
In short: as §1

BTK T474I = BTK T474I (Homo sapiens (Human), UniProt Q06187, T474I); assay: Binding kinetics measurements (Surface Plasmon Resonance) on BTK T474I; details: for pKd: binding affinity by Surface Plasmon Resonance (SPR); for Tau (h) BTK T474I (Act): target residence time, SPR
Chain of BTK T474I (Q06187 whole entry T474I): as the sequence (Q06187 whole entry T474S) above, with S474I counted along it
In short: as §1

[2] = biological target: full-length wt-BTK enzyme (Homo sapiens (Human), UniProt Q06187); assay: Biochemical kinase assay wt-BTK (IMAP)
Chain of full-length wt-BTK enzyme (Q06187 whole entry): as the sequence (Q06187 whole entry T474S) above, with S474T counted along it
In short: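 Compound and enzyme (final 1.2 nM) were pre-incubated for 1 h at RT, after which the reaction was started with 4 μM ATP plus 50 nM fluorescein-MBP substrate peptide. After 2 h in the dark, the IMAP progressive binding reagent stopped the reaction, and phosphorylation was read by fluorescence polarization.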

BTK C481S = BTK C481S (Homo sapiens (Human), UniProt Q06187, C481S); assay: Binding kinetics measurements (Surface Plasmon Resonance) on BTK C481S; details: for pKd: binding affinity by Surface Plasmon Resonance (SPR); for Tau (h) BTK C418S (Act): target residence time for BTK C481S, SPR
Chain of BTK C481S (Q06187 whole entry C481S): as the sequence (Q06187 whole entry T474S) above, with S474T, C481S counted along it
In short: as §1

wt-BTK = wt-BTK (Homo sapiens (Human), UniProt Q06187); assay: Binding kinetics measurements (Surface Plasmon Resonance) on wt-BTK; details: for pKd: binding affinity by Surface Plasmon Resonance (SPR); for Tau (h) wt-BTK (Act): target residence time, SPR
Chain of wt-BTK (Q06187 whole entry): as the sequence (Q06187 whole entry T474S) above, with S474T counted along it
In short: as §1

[3] = system: wt-REC-1 mantle cell lymphoma cells; assay: Cell proliferation assay wt-REC-1 (ATPlite, 72 hours); type: cell-based; details: 72 h; read-out: IC50 wt-REC-1
In short: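 Luminescent viability read over 72 h, start-of-incubation signal recorded separately to separate growth from cell death. Percentage growth referenced to compound-free 0.3% DMSO wells; IC50 from 4-parameter logistic fit.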

[4] = system: wt-TMD8 diffuse large B-cell lymphoma cells; assay: Cell proliferation assay wt-TMD8 (ATPlite, 120 hours); type: cell-based; details: B-cell; wt-TMD8 cells, 120 hours, ATPlite; read-out: IC50 wt-TMD8
In short: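 Readout is percentage growth from ATPlite 1Step luminescence after 5 days (120 h) compound treatment of wt-TMD8 lymphoma cells (1600/well, RPMI-1640 + 10% FBS). Time-zero signal separates growth inhibition from cell kill; 0.3% DMSO wells without compound define maximal growth.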

Chain of full-length BTK C481S enzyme (Q06187 whole entry C481S): as the sequence (Q06187 whole entry T474S) above, with S474T, C481S counted along it

pIC50 [1] | pKd (BTK T474S) | pKd (BTK T316A) | Tau (h) BTK T316A (Act) (BTK T316A) [h] | pKd (BTK T474I) | pIC50 [2] | pKd (BTK C481S) | Tau (h) BTK C418S (Act) (BTK C481S) [h] | pKd (wt-BTK) | Tau (h) wt-BTK (Act) (wt-BTK) [h] | pIC50 [3] | pIC50 [4] | residence time (BTK T474S) [h] | Tau (h) BTK T474I (Act) (BTK T474I) [h] | Structure (SMILES) | pIC50 (REC-1 T474I cell lines)
> 8.30 | > 8.52 | > 8.30 | 1.04 | 7.30 to 8.00 and > 8.30 | > 8.30 | > 8.30 | 2.05 | > 8.30 | 1.10 | > 7.00 | > 7.00 | – | – | C[C@@H]1CCn2nc(-c3ccc(C(=O)Nc4cc(C(F)(F)F)ccn4)cc3)c3c(N)ncc(c32)/C=C/CCOCC(=O)N1 [Example 59] | 5.00 to 6.30
> 8.30 | – | – | 3.81 | – | > 8.30 | – | 6.64 | – | 3.66 | > 7.00 | > 7.00 | > 24 | 3.14 | Nc1ncc2c3c1c(-c1ccc(C(=O)Nc4cc(C(F)(F)F)ccn4)cc1)nn3[C@@H]1CC[C@H](C1)NC(=O)CCCCC/C=C/2 [Example 168] | > 7.00
> 8.30 | > 8.52 | > 8.30 | 3.22 | > 8.70 | > 8.30 | > 8.30 | 6.65 | > 8.30 | 5.89 | > 7.00 | > 7.00 | 1.79 | 5.95 | Nc1ncc2c3c1c(-c1ccc(C(=O)Nc4cc(C(F)(F)F)ccn4)cc1)nn3[C@@H]1CCC[C@H](C1)NC(=O)CCOCC/C=C/2 [Example 26] | > 7.00
> 8.30 | > 8.52 | > 8.30 | – | 7.30 to 8.00 and > 8.30 | > 8.30 | > 8.30 | 1.63 | > 8.30 | 0.97 | 6.00 to 7.00 | > 7.00 | 1.85 | – | C[C@@H]1CCn2nc(-c3ccc(C(=O)Nc4cc(C(F)(F)F)ccn4)cc3)c3c(N)ncc(c32)/C=C/CCCC(=O)N1 [Example 76] | 5.00 to 6.30
> 8.30 | > 8.52 | > 8.30 | 3.44 | > 8.70 | > 8.30 | > 8.30 | 5.25 | > 8.30 | 3.70 | > 7.00 | > 7.00 | 9.61 | 2.37 | Nc1ncc2n3c(nc(-c4ccc(C(=O)Nc5cc(C(F)(F)F)ccn5)cc4)c13)[C@@H]1CCC[C@H](C1)NC(=O)CCCCC/C=C/2 [Example 131] | > 7.00
> 8.30 | > 8.52 | > 8.30 | 5.41 | > 8.70 | > 8.30 | > 8.30 | 9.06 | > 8.30 | 6.06 | > 7.00 | > 7.00 | 8.1 | 1.70 | Nc1ncc2c3c1c(-c1ccc(C(=O)Nc4cc(C(F)(F)F)ccn4)cc1)nn3[C@@H]1CCC[C@H](C1)NC(=O)C1CCN1CC/C=C/2 (stereo partly drawn) [Example 34] | > 7.00
> 8.30 | > 8.52 | > 8.30 | 3.23 | > 8.70 | > 8.30 | > 8.30 | 7.11 | > 8.30 | 8.24 | > 7.00 | > 7.00 | 6.2 | 1.80 | Nc1ncc2c3c1c(-c1ccc(C(=O)Nc4cc(C(F)(F)F)ccn4)cc1)nn3[C@@H]1CCCN(C1)C(=O)CCCCCC/C=C/2 [Example 79] | 6.30 to 7.00
> 8.30 | – | – | 4.67 | – | > 8.30 | – | 3.51 | – | >24 | > 7.00 | > 7.00 | 6.74 | 4.37 | N#Cc1ccnc(NC(=O)c2ccc(-c3nn4c5c(cnc(N)c35)/C=C/CCCCCC(=O)N[C@@H]3CCC[C@@H]4C3)cc2)c1 [Example 163] | > 7.00
> 8.30 | > 8.52 | > 8.30 | – | 7.30 to 8.00 and > 8.30 | > 8.30 | > 8.30 | 1.92 | > 8.30 | 1.82 | 6.00 to 7.00 | > 7.00 | 2.09 | – | COc1ccc(F)cc1C(=O)NCc1ccc(-c2nn3c4c(cnc(N)c24)/C=C/CCCCC(=O)N[C@@H]2CCC[C@@H]3C2)cc1 [Example 51] | 6.30 to 7.00
> 8.30 | > 8.52 | > 8.30 | – | > 8.70 | > 8.30 | > 8.30 | 1.67 | > 8.30 | 1.29 | 6.00 to 7.00 | > 7.00 | 1.97 | – | C[C@@H]1CCn2nc(-c3ccc(C(=O)Nc4cc(C#N)ccn4)cc3)c3c(N)ncc(c32)/C=C/CCOCCC(=O)N1 [Example 153] | 5.00 to 6.30
> 8.30 | > 8.52 | > 8.30 | 2.20 | > 8.70 | > 8.30 | > 8.30 | 4.75 | > 8.30 | 3.20 | > 7.00 | > 7.00 | 4.63 | – | Nc1ncc2c3c1c(-c1ccc(C(=O)Nc4cc(C(F)(F)F)ccn4)cc1)nn3[C@@H]1CCC[C@H](C1)NC(=O)COC/C=C/2 [Example 49] | 6.30 to 7.00
> 8.30 | – | – | 1.58 | – | > 8.30 | – | 2.76 | – | 2.05 | > 7.00 | > 7.00 | 3.15 | 2.54 | Nc1ncc2c3c1c(-c1ccc(C(=O)Nc4cc(C(F)(F)F)ccn4)cc1)nn3[C@@H]1CC[C@H](C1)NC(=O)CCOC/C=C/2 [Example 170] | > 7.00
> 8.30 | > 8.52 | > 8.30 | 1.43 | > 8.70 | > 8.30 | > 8.30 | 4.03 | > 8.30 | 4.52 | > 7.00 | > 7.00 | 3.77 | 0.73 | C[C@H]1OC/C=C/c2cnc(N)c3c(-c4ccc(C(=O)Nc5cc(C(F)(F)F)ccn5)cc4)nn(c23)[C@@H]2CCC[C@H](C2)NC1=O [Example 28] | 6.30 to 7.00
> 8.30 | > 8.52 | > 8.30 | 3.60 | > 8.70 | > 8.30 | > 8.30 | 14.35 | > 8.30 | 5.24 | > 7.00 | > 7.00 | 8.71 | 1.12 | CN1C/C=C/c2cnc(N)c3c(-c4ccc(C(=O)Nc5cc(C(F)(F)F)ccn5)cc4)nn(c23)[C@@H]2CCC[C@H](C2)NC(=O)CC1 [Example 17] | > 7.00
